Test results reported in patent US20220265830A1, “LONG-ACTING FORMULATIONS AND VEHICLES” (DURECT CORPORATION, priority 2019, published 2022).
Values after ≈ are worked out from the molar mass of the structure shown. Like-named read-outs stand apart in the source and are kept apart here. Marks after values point to notes of the source that are not given here.

Assays:
physchem = details: BB
Description: Briefly, samples were prepared by mixing active agent and solvent and were tested at various time points after mixing and after storage at various temperatures. The samples were tested for the solubility of the active agent (mg/mL), calculated as the free base equivalent. Each data point is the average of two replicates unless otherwise specified.

[1] = Experimental (Buprenorphine at 25° C.); cited from earlier work
[2] = Experimental; cited from earlier work
[3] = in vivo; cited from earlier work
[4] = Experimental, cited from earlier work
[5] = cited from earlier work

| Molecule | logP [2] | Oral Half-life [3] | other results |
| --- | --- | --- | --- |
| CC(C)OC(=O)[C@H](C)N[P@](=O)(CO[C@H](C)Cn1cnc2c(N)ncnc21)Oc1ccccc1 [TAF Free base, tenofovir alafenamide] | – | – | solubility at 4 days (physchem): 5 mg/mL (≈ 10.5 mM) |
| C[C@@](Cc1ccc(O)c(O)c1)(NN)C(=O)O [Carbidopa] | −1.9 | ~1.78 h | pKa [1]: 2.3; Water Solubility [4]: 3.8 mg/mL |
| Nc1ncn([C@H]2C[C@H](O)[C@@H](CO)O2)c(=O)n1 [Decitabine] | – | 0.51 ± 0.31 h | – |
| O=C1CCc2ccc(OCCCCN3CCN(c4cccc(Cl)c4Cl)CC3)cc2N1 [Aripiprazole] | – | 75 h | Water Solubility [4]: 0.00001% |
| C[C@@H]1CCO[C@H]2Cn3cc(C(=O)NCc4ccc(F)cc4F)c(=O)c(O)c3C(=O)N12 [Dolutegravir] | 2.2 | 14 h | Water Solubility ([4]; in words): Slightly soluble |
| sucrose acetate isobutyrate [SAIB] | – | – | viscosity ([5]; at 37° C.): about 320,000 cP; viscosity ([5]; at 80° C.): about 600 cP; viscosity ([5]; at about 25° C.): about 2 million |
| N[C@@H](Cc1ccc(O)c(O)c1)C(=O)O [Levodopa] | 0.05 | 0.833 h | Water Solubility [4]: 5 mM |
| O=c1ccc2ccc(OCCCCN3CCN(c4cccc5sccc45)CC3)cc2[nH]1 [Brexpiprazoie] | – | 91 h | – |
| O=C1[C@@H]2[C@H]3CC[C@H](C3)[C@@H]2C(=O)N1C[C@@H]1CCCC[C@H]1CN1CCN(c2nsc3ccccc23)CC1 [Lurasidone] | – | 18 to 37 h | – |
| Cc1cc(/C=C/C#N)cc(C)c1Nc1ccnc(Nc2ccc(C#N)cc2)n1 [Rilpivirine] | 4.86 | 34 to 55 h | Water Solubility [4]: <0.1 mg/mL |
| COc1cc2c(cc1Cc1cccc(Cl)c1F)c(=O)c(C(=O)O)cn2[C@H](CO)C(C)C [Elvitegravir] | – | 8.7 h | – |
| Cc1cc2c(s1)Nc1ccccc1N=C2N1CCN(C)CC1 [Olanzapine] | – | 21 −54 hrs | – |
| O=C1CC[C@@]2(O)[C@H]3Cc4ccc(O)c5c4[C@@]2(CCN3CC2CC2)[C@H]1O5 [Naltrexone] | 1.92 | – | – |
| CN1CC2c3ccccc3Oc3ccc(Cl)cc3C2C1 (centres unmarked) [Asenapine] | – | ~24 h | – |
| Cc1cn([C@H]2C=C[C@@H](CO)O2)c(=O)[nH]c1=O [Stavudine] | −0.72 | 0.8 to 1.5 h | Water Solubility ([4]; at 21° C.): 5-10 g/100 mL at |
| Nc1ncn([C@@H]2O[C@H](CO)[C@@H](O)[C@H]2O)c(=O)n1 [Azacitidine] | – | ~4 h | – |
| Nc1ccn([C@H]2CC[C@@H](CO)O2)c(=O)n1 [Zalcitabine] | – | 2 h | – |
| CCNC(=O)[C@@H]1CCCN1C(=O)[C@H](CCCNC(=N)N)NC(=O)[C@H](CC(C)C)NC(=O)[C@@H](CC(C)C)NC(=O)[C@H](Cc1ccc(O)cc1)NC(=O)[C@H](CO)NC(=O)[C@H](Cc1c[nH]c2ccccc12)NC(=O)[C@H](Cc1c[nH]cn1)NC(=O)[C@@H]1CCC(=O)N1 [Leuprolide] | – | ~3 h | – |
| Cc1nnc(C(=O)NC(C)(C)c2nc(C(=O)NCc3ccc(F)cc3)c(O)c(=O)n2C)o1 [Raltegravir] | – | 9 h | – |
| Cc1nc2n(c(=O)c1CCN1CCC(c3noc4cc(F)ccc34)CC1)CCCC2O (centres unmarked) [Paliperidone] | 1.8 | ~23 h | – |
| CC(C)OC(=O)[C@H](C)N[P@](=O)(CO[C@H](C)Cn1cnc2c(N)ncnc21)Oc1ccccc1.CC(C)OC(=O)[C@H](C)N[P@](=O)(CO[C@H](C)Cn1cnc2c(N)ncnc21)Oc1ccccc1.O=C(O)/C=C/C(=O)O [TAF Hemifumarate] | – | – | Solubility (mg/mL, Calculated as Free Base Equivalent) (ACN, 37° C./5 days): 11 mg/mL; Solubility (mg/mL, Calculated as Free Base Equivalent) (BB, 37° C., asterisk: taken at 4 days as opposed to 5 days): 3.9* mg/mL; Solubility (mg/mL, Calculated as Free Base Equivalent) (DCM, 37° C./5 days): 97 mg/mL; Solubility (mg/mL, Calculated as Free Base Equivalent) (DMSO, 37° C./5 days): 132 mg/mL; Solubility (mg/mL, Calculated as Free Base Equivalent) (NMP, 37° C./5 days): 160 mg/mL; Solubility (mg/mL, Calculated as Free Base Equivalent) (PC, 37° C./5 days): 22 mg/mL |
